The assay addresses T1, UIS3 (PfUIS3) (Plasmodium falciparum, UniProt Q8IEU1).
T1 construct: gene PF3D7_1302200; recombinant His-mycUIS3, His tag cleaved; with LC3
The experiment in a line: ITC, C4 ([…]) titrated into a saturated solution of UIS3 with LC3, one-site model. The class given is binding.

Among the data in paper PMC7677311, “Disrupting Plasmodium UIS3–host LC3 interaction with a small molecule causes parasite elimination from host cells” (Communications Biology, 2020) are Kd values, retold here.

The structures appear in SMILES notation.

T1 sequence (Q8IEU1 entry or part of it): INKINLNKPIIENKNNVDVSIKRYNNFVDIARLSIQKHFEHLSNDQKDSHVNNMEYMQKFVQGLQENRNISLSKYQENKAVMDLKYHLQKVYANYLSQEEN

By Kd is commonly meant the constant that tells how readily two partners part at equilibrium. With `N#Cc1ccc(C(=O)N2CCN(Cc3ccc(-c4noc(-c5cccc(C(F)(F)F)c5)n4)cc3)CC2)cc1` [C4, 4-{[4-(4-{5-[3-(trifluoromethyl)phenyl]-1,2,4-oxadiazol-3-yl}benzyl)piperazino]carbonyl}benzonitrile], binding was characterised by a dissociation constant (Kd) of 241 nM.
